Experiments:
[1] = logP determination by HPLC on a reversed-phase column (C18); format: physicochemical; conditions: for logP^a): HPLC-MS method a); for log P: HPLC-MS
Rhipicephalus sanguineus = Rhipicephalus sanguineus - in vitro contact tests with adult brown dog ticks; format: in vivo; conditions: after 48 h, ticks dead or moribund
Procedure, shortened: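 Test tubes coated with active ingredient in acetone, 5 μg/cm^2 at 900 ppm. 5-10 adult ticks per tube, kept dark at room temperature for 48 h. Ticks then heated at 45-50° C ≤5 min; motionless or uncoordinated ticks scored dead/moribund, efficacy as % dead or moribund.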

Ctenocephalides felis [2] = experiment: Ctenocephalides felis - in vitro contact tests with adult cat fleas; format: in vivo; conditions: application rate 5 μg/cm2 (=500 g/ha); after 48 h; fleas dead or moribund
Procedure, shortened: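 Tubes coated with compound in acetone (250 μl of 900 ppm solution gives 5 μg/cm^2 on 44.7 cm^2), solvent evaporated, then 5–10 adult fleas added and kept horizontal at room temperature and ambient humidity. After 48 h, dead or moribund (motionless/uncoordinated) fleas scored as % efficacy.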

Amblyomma hebraeum = experiment: Amblyomma hebaraeum test (tick nymphs, immersion); format: in vivo; conditions: application rate 100 ppm; tick nymphs immersed one minute; after 42 days
Procedure, shortened: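 Tick nymphs immersed for one minute in compound diluted in water from a DMSO concentrate, then held on filter paper in a Petri dish in a climate-controlled cabinet. Kill (%) scored after 42 days; 100% means all ticks dead, 0% none.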

Boophilus microplus = Boophilus microplus - injection test; format: in vivo; conditions: application rate 20 μg/animal; injection into engorged adult female ticks; after 7 days
Procedure, shortened: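 Active ingredient in DMSO, 1 μl injected into the abdomen of 5 engorged adult female ticks, then held in a climate-controlled room. Efficacy scored after 7 days from laying of fertile eggs, with non-fertile-looking eggs kept about 42 days for larval hatch; 100% means no fertile eggs.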

[3] = test system: Boophilus microplus Parkhurst strain, SP-resistant; experiment: Boophilus microplus - dip test; format: in vivo; conditions: application rate 100 ppm; dip of engorged adult female ticks; after 7 days
Procedure, shortened: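 SP-resistant Parkhurst strain engorged adult female Boophilus microplus (8-10 per tube) dipped in DMSO-based compound dilutions in water, then kept in a climate-controlled room. Efficacy scored after 7 days from fertile egg laying, with larval hatch checked after about 42 days; 100% means no fertile eggs.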

Ctenocephalides felis [4] = experiment: Ctenocephalides felis - oral test; format: in vivo; conditions: application rate 100 ppm in citrated cattle blood; after 2 days
Procedure, shortened: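 Compound in DMSO diluted into citrated cattle blood, fed through a parafilm membrane to about 20 unfed adult cat fleas. Kill in % scored after 2 days (100% = all dead).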

Lucilia cuprina = Lucilia cuprina test; format: in vivo; conditions: application rate 100 ppm; L1 larvae; after 2 days
Procedure, shortened: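 About 20 L1 larvae placed on minced horsemeat treated with compound, formulated in DMSO and diluted with water to test concentration. Kill in % scored after 2 days (100% = all larvae dead, 0% = none).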

Musca domestica = Musca domestica test; format: in vivo; conditions: application rate 100 ppm; adult houseflies; after 2 days
Procedure, shortened: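 Compound dissolved in DMSO (10 mg per 0.5 ml) and diluted with water to the test concentration. Sponges soaked with sugar solution plus formulation were offered to 10 adult houseflies per vessel. Mortality (% kill, 100% = all dead, 0% = none) scored after 2 days.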

Myzus persicae = Myzus persicae - spray test; format: in vivo; conditions: Chinese cabbage leaf discs, after 6 days
Procedure, shortened: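 Chinese cabbage leaf discs carrying all stages of Myzus persicae sprayed with compound in acetone/DMF diluted in water with 1000 ppm emulsifier. Efficacy (% aphids killed) assessed after 6 days.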

Phaedon cochleariae = Phaedon cochleariae - spray test; format: in vivo; conditions: larvae on Chinese cabbage leaf discs, after 7 days
Procedure, shortened: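 Chinese cabbage leaf discs sprayed with compound formulated in acetone/DMF and water containing 1000 ppm emulsifier; once dry, infested with mustard beetle larvae. Efficacy (% larvae killed) scored after 7 days.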

Spodoptera frugiperda = Spodoptera frugiperda - spray test; format: in vivo; conditions: caterpillars on maize leaf discs, after 7 days
Procedure, shortened: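 Maize leaf discs sprayed with compound formulated in acetone/DMF and diluted in water containing 1000 ppm alkylaryl polyglycol ether emulsifier, then infested with armyworm caterpillars after drying. Efficacy scored after 7 days as % caterpillars killed (100% all, 0% none).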

Tetranychus urticae = Tetranychus urticae - spray test, OP-resistant; format: in vivo; conditions: bean leaf discs, after 6 days
Procedure, shortened: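 Compound dissolved in acetone/DMF, diluted with water containing 1000 ppm alkylaryl polyglycol ether emulsifier to test concentrations. Bean leaf discs infested with all stages of spider mites were sprayed; % kill determined after 6 days (100% = all mites dead, 0% = none).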

[5] = reversed-phase column (C18), Table I-T3

Compound	logP^a) ([1]; reversed-phase column (C18))	log P [1, 5]	efficacy (Ctenocephalides felis [2])	efficacy (kill) (Amblyomma hebraeum)	efficacy (laying of fertile eggs) (Boophilus microplus)	efficacy (laying of fertile eggs) [3]	efficacy (kill) (Ctenocephalides felis [4])	efficacy (kill) (Lucilia cuprina)	efficacy (kill) (Musca domestica)	efficacy (Myzus persicae; application rate 100 g/ha)	efficacy (Phaedon cochleariae; application rate 100 g/ha)	efficacy (Spodoptera frugiperda; application rate 100 g/ha)	efficacy (Tetranychus urticae; application rate 100 g/ha)	logP^a) [1]	efficacy (Rhipicephalus sanguineus; application rate 5 μg/cm2)	efficacy (Phaedon cochleariae; application rate 500 g/ha)	efficacy (Spodoptera frugiperda; application rate 500 g/ha)	efficacy (Tetranychus urticae; application rate 500 g/ha)	logP^a) [1, 5]	efficacy (Myzus persicae; application rate 500 g/ha)	also measured
Cc1cc(C(F)(C(F)(F)F)C(F)(F)F)cc(C(F)(F)F)c1-n1cc(-c2cnc(C)c(C(=O)N(C)C3(C#N)CC3)c2)cn1 [I-T3-123]	3.9	3.9	100%	80%	100%	100%	100%	100%	100%	100%	100%	100%	90%	–	–	–	–	–	–	–	efficacy (Rhipicephalus sanguineus; application rate 1 μg/cm2): 80%
Cc1cc(C(F)(C(F)(F)F)C(F)(F)F)cc(C)c1-n1cc(-c2cnc(C)c(C(=O)NC3CC3)c2)cn1 [I-T3-96]	–	3.3	100%	100%	100%	100%	100%	100%	100%	90%	–	–	–	3.3	100%	100%	100%	100%	–	–	–
Cc1cc(C(F)(C(F)(F)F)C(F)(F)F)cc(C(F)(F)F)c1-n1cc(-c2ccc(Cl)c(C(=O)NC3CC3)c2)cn1 [I-T3-54]	–	–	100%	100%	100%	100%	100%	100%	100%	100%	100%	100%	100%	4.4	100%	–	–	–	4.4	–	–
O=C(NC1CC1)c1cc(-c2cnn(-c3c(Cl)cc(C(F)(C(F)(F)F)C(F)(F)F)cc3OC(F)(F)F)c2)ccc1Cl [I-T3-162]	4.6	4.6	100%	100%	100%	100%	100%	100%	100%	100%	100%	100%	100%	–	100%	–	–	–	–	–	–
CCc1cc(C(F)(C(F)(F)F)C(F)(F)F)cc(Cl)c1-n1cc(-c2ccc(Cl)c(C(=O)NC3CC3)c2)cn1 [I-T3-72]	–	–	100%	100%	100%	100%	100%	100%	100%	90%	100%	100%	100%	4.6	100%	–	–	–	4.6	–	–
CCc1cc(C(F)(C(F)(F)F)C(F)(F)F)cc(C)c1-n1cc(-c2cnc(Cl)c(C(=O)NC3(C#N)CC3)c2)cn1 [I-T3-110]	4.1	4.1	100%	100%	100%	100%	100%	100%	100%	–	–	–	–	–	100%	100%	100%	100%	–	100%	–
Cc1cc(C(F)(C(F)(F)F)C(F)(F)F)cc(C(F)(F)F)c1-n1cc(-c2cnc(C)c(C(=O)NC3(C#N)CC3)c2)cn1 [I-T3-119]	3.6	3.6	100%	100%	100%	100%	100%	100%	100%	–	–	–	–	–	100%	100%	100%	100%	–	90%	–
Cc1ncc(-c2cnn(-c3c(Cl)cc(C(F)(C(F)(F)F)C(F)(F)F)cc3Cl)c2)cc1C(=O)NC1(C#N)CC1 [I-T3-92]	–	3.4	100%	100%	100%	100%	100%	100%	100%	–	–	–	–	3.4	80%	100%	100%	100%	–	100%	–
Cc1cc(C(F)(C(F)(F)F)C(F)(F)F)cc(C)c1-n1cc(-c2cnc(Cl)c(C(=O)NC3CC3)c2)cn1 [I-T3-20]	–	–	100%	100%	100%	100%	100%	100%	100%	–	–	–	–	3.8	100%	100%	100%	100%	3.8	100%	–
Cc1ncc(-c2cnn(-c3c(Cl)cc(C(F)(C(F)(F)F)C(F)(F)F)cc3Cl)c2)cc1C(=O)NC1CC1 [I-T3-91]	–	3.3	100%	100%	100%	100%	100%	100%	100%	–	–	–	–	3.3	100%	100%	100%	100%	–	90%	–
Cc1cc(C(F)(C(F)(F)F)C(F)(F)F)cc(C(F)(F)F)c1-n1cc(-c2ccc(Cl)c(C(=O)NC3(C#N)CC3)c2)cn1 [I-T3-55]	–	–	100%	100%	100%	100%	100%	100%	100%	100%	100%	100%	100%	4.3	100%	–	–	–	4.3	–	–
Cc1cc(C(F)(C(F)(F)F)C(F)(F)F)cc(C)c1-c1cc(-c2ccc(Cl)c(C(=O)NC3(C#N)CC3)c2)on1 [I-T22-2]	–	–	100%	100%	100%	100%	100%	100%	100%	100%	100%	100%	90%	–	100%	–	–	–	–	–	logP ([1]; HPLC, C18 reversed phase, acetonitrile/water with formic acid, EEC Directive 79/831 Annex V.A8): 4.6

Source: US10150737B2, “Compounds for controlling arthropods” (priority 2013, dated 2018)
